Key:
[1] = Inhibition of CXCR2-mediated chemotaxis in Ba/F3 cells expressing human CXCR2
[2] = Inhibition of CXCR1-mediated chemotaxis in Ba/F3 cells expressing human CXCR1

IC50 [1] | IC50 [2] | SMILES
12.2 nM | – | CC[C@@H](Nc1c(Nc2cccc(C(=O)N(C)C)c2O)c(=O)c1=O)c1cc(C)on1 [(R)-2-hydroxy-N,N-dimethyl-3-(2-(1-(5-methylisoxazol-3-yl)propylamino)-3,4-dioxocyclobut-1-enylamino)benzamide]
2 nM | 917 nM | CC[C@@H](Nc1c(Nc2cccc(C(=O)N(C)C)c2O)c(=O)c1=O)c1cc(Br)co1 [(R)-3-(2-(1-(4-bromofuran-2-yl)propylamino)-3,4-dioxocyclobut-1-enylamino)-2-hydroxy-N,N-dimethylbenzamide]
4.5 nM | – | CC[C@@H](Nc1c(Nc2cccc(C(=O)N(C)C)c2O)c(=O)c1=O)c1ccccn1 [(R)-3-(3,4-dioxo-2-(1-(pyridin-2-yl)propylamino)cyclobut-1-enylamino)-2-hydroxy-N,N-dimethylbenzamide]

Source: BindingDB's records for doi:10.1016/j.bmcl.2008.01.024 (Schering-Plough Research Institute, 2008)
